Here are results for 33 compounds from ChEMBL document CHEMBL5052818, “Aminopyrimidine derivatives as ctps1 inhibitors” (2019).

The assay is described as follows: Inhibition of C-terminal FLAG-His-tagged full length human CTPS1 measured after 60 mins by ADP-Glo assay.

In the case of `CCC(C(=O)Nc1ccc(-c2cncc(OC)n2)cc1F)c1ccnc(NS(=O)(=O)C2CC2)n1` (stereo not drawn), the IC50 is not above 100 nM.
Compound `CCC(C(=O)Nc1ccc(-c2cncc(OCC(F)(F)F)n2)cc1)c1ccnc(NS(=O)(=O)C2CC2)n1` (stereo not drawn) registered a half-inhibitory concentration (IC50) not above 100 nM.
Consider `CCOc1cncc(-c2ccc(NC(=O)C3(c4ccnc(NS(=O)(=O)C5CC5)n4)CC3)cc2)n1`, for which the 50% inhibitory concentration (IC50) is not above 100 nM.
Regarding `CCC(C(=O)Nc1ccc(-c2cncc(C(F)(F)F)n2)cn1)c1ccnc(NS(=O)(=O)C2CC2)n1` (stereo not drawn), the IC50 was not above 100 nM.
As for `CCC(C(=O)Nc1ccc(-c2cncc(Cl)n2)cc1)c1ccnc(NS(=O)(=O)C2CC2)n1` (stereo not drawn), the concentration for half-maximal inhibition (IC50) was more than 100 nM.
Next, `CCC(C(=O)Nc1ccc(-c2cncc(OCC(F)(F)F)c2)cc1F)c1ccnc(NS(=O)(=O)C2CC2)n1` (stereo not drawn): more than 100 nM.
With `CCOc1cncc(-c2ccc(NC(=O)C(CCOC)c3ccnc(NS(=O)(=O)C4CC4)n3)cc2)n1` (stereo not drawn) the figure was not above 100 nM; with `CCC(C(=O)Nc1ccc(-c2cccnc2)cn1)c1ccnc(NS(=O)(=O)C2CC2)n1` (stereo not drawn), more than 1000 nM.
Compound `CC(C(=O)Nc1ccc(-c2cccnc2)cc1)c1ccnc(NS(=O)(=O)C2CC2)n1` (stereo not drawn) registered a 50% inhibitory concentration (IC50) of more than 100 nM.
In turn, `Cc1cc(-c2cncc(C(F)(F)F)n2)ccc1NC(=O)C(C)(C)c1ccnc(NS(C)(=O)=O)n1` came in with an IC50 of more than 100 nM.
As to `CCC(C(=O)Nc1ccc(-c2cncc(C(F)(F)F)n2)cc1F)c1ccnc(NS(=O)(=O)C2CC2)n1` (stereo not drawn), the IC50 was not above 100 nM.
With `CCC(C(=O)Nc1ccc(-c2cncc(OC)n2)cc1)c1ccnc(NS(=O)(=O)C2CC2)n1` (stereo not drawn) the figure was not above 100 nM; with `CCC(C(=O)Nc1ccc(-c2cnccn2)cc1)c1ccnc(NS(=O)(=O)C2CC2)n1` (stereo not drawn), more than 100 nM; with `CCOc1cncc(-c2ccc(NC(=O)C(CC)c3ccnc(NS(=O)(=O)C4CC4)n3)nc2)n1` (stereo not drawn), not above 100 nM.
Turning to `CCC(C(=O)Nc1ccc(-c2cncc(C(F)(F)F)n2)cc1)c1ccnc(NS(=O)(=O)C2CC2)n1` (stereo not drawn), the half-maximal inhibitory concentration (IC50) is more than 100 nM.
Next, `CCC(C(=O)Nc1ccc(-c2cncc(OCC(F)(F)F)c2)cc1)c1ccnc(NS(=O)(=O)C2CC2)n1` (stereo not drawn): more than 100 nM.
With `CCOc1cncc(-c2ccc(NC(=O)C(C)(C)c3ccnc(NS(C)(=O)=O)n3)cc2)n1` the figure was not above 100 nM; with `CCC(C(=O)Nc1ccc(-c2cncc(C(F)(F)F)c2)cn1)c1ccnc(NS(=O)(=O)C2CC2)n1` (stereo not drawn), more than 100 nM.
For the compound `CCC(C(=O)Nc1ccc(-c2cncc(OC(C)C)n2)cn1)c1ccnc(NS(=O)(=O)C2CC2)n1` (stereo not drawn), the IC50 is not above 100 nM.
With `CCC(C(=O)Nc1ccc(-c2cccnc2)cc1F)c1ccnc(NS(=O)(=O)C2CC2)n1` (stereo not drawn), the half-maximal inhibitory concentration (IC50) was more than 1000 nM.
Next, `CC(C)(C(=O)Nc1ccc(-c2cncc(C(F)(F)F)n2)cc1)c1ccnc(NS(C)(=O)=O)n1`: more than 100 nM; `CCC(C(=O)Nc1ccc(-c2cncc(C#N)c2)cc1)c1ccnc(NS(=O)(=O)C2CC2)n1` (stereo not drawn): more than 100 nM; `CCOc1cncc(-c2ccc(NC(=O)C(CC)c3ccnc(NS(=O)(=O)C4CC4)n3)c(F)c2)n1` (stereo not drawn): not above 100 nM.
Next, `CCOc1cncc(-c2ccc(NC(=O)C(C)(C)c3ccnc(NS(=O)(=O)C(C)(C)C)n3)cc2)n1`: more than 1000 nM; `CCC(C(=O)Nc1ccc(-c2cccnc2)cc1)c1ccnc(NS(=O)(=O)C2CC2)n1` (stereo not drawn): more than 100 nM; `CCC(C(=O)Nc1ccc(-c2cncc(OCC(F)(F)F)n2)cc1F)c1ccnc(NS(=O)(=O)C2CC2)n1` (stereo not drawn): not above 100 nM.
In the case of `CCC(C(=O)Nc1ccc(-c2cncc(OC(C)C)n2)cc1)c1ccnc(NS(=O)(=O)C2CC2)n1` (stereo not drawn), the IC50 was not above 100 nM.
With `CCC(C(=O)Nc1ccc(-c2cncc(OCC(F)(F)F)c2)cn1)c1ccnc(NS(=O)(=O)C2CC2)n1` (stereo not drawn) the figure was more than 100 nM; with `CCOc1cncc(-c2ccc(NC(=O)C(CC)c3ccnc(NS(=O)(=O)C4CC4)n3)cc2)n1` (stereo not drawn), not above 100 nM.
With `CCC(C(=O)Nc1ccc(-c2cncc(Cl)c2)cc1F)c1ccnc(NS(=O)(=O)C2CC2)n1` (stereo not drawn) the figure was more than 100 nM; with `CCC(C(=O)Nc1ccc(-c2cncc(OC(C)C)n2)cc1F)c1ccnc(NS(=O)(=O)C2CC2)n1` (stereo not drawn), not above 100 nM.
`CCC(C(=O)Nc1ccc(-c2cncc(OC(C)C)c2)cc1)c1ccnc(NS(=O)(=O)C2CC2)n1` (stereo not drawn) came in with an IC50 of more than 100 nM.
`CCC(C(=O)Nc1ccc(-c2cncc(OC(C)C)c2)cc1F)c1ccnc(NS(=O)(=O)C2CC2)n1` (stereo not drawn) gave an IC50 of more than 100 nM.
